Where a name gives a salt, the structure may show the parent alone. Read-outs that look alike come from different tables or passages of the source.
Assays:
mu opioid receptor = experiment: opioid receptor binding, mu ([3H]naloxone); design: species or system guinea pig (method, b1124); rat (Table 4 title)
[1] = phenylquinone writhing test (PQW), analgesic activity in mice; assay type: in vivo, male white mice (CFl); conditions: for ED50: Mus musculus
kappa opioid receptor = biological target: T1, kappa opioid receptor (Cavia porcellus, UniProt P41144); experiment: opioid receptor binding, kappa ((-)-[3H]ethylketocycloazocine); design: species or system guinea pig (method, b1124); rat (Table 4 title)
T1 construct: Whole brains were homogenized (20 sec) in 10 vol (wt/vol) of ice-cold 0.34 M sucrose; tissue Charles River (animals); host or cells: guinea pig whole-brain membranes
T1 sequence (P41144 whole entry): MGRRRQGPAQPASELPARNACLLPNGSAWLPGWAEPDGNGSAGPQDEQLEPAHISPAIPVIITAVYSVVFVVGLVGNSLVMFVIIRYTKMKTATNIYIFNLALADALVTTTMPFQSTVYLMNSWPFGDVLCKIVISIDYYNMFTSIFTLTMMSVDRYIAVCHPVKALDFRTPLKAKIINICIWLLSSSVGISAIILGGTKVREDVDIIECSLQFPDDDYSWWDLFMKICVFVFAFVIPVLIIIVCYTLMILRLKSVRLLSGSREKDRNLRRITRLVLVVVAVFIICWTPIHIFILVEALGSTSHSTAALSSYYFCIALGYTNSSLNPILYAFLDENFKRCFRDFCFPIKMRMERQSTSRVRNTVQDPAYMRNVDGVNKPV

[2] = 0.5 nM [3H]naloxone, brain membranes, apparent Ki

SMILES	Ki (mu opioid receptor; hydrochloride) [nM]	ED50 ([1]; po) [mg/kg]	MOUSE PQW ED50 ([1]; s.c., hydrochloride) [mg/kg]	Ki (mu opioid receptor; [2]) [nM]	ED50 ([1]; sc) [mg/kg]	Ki (kappa opioid receptor) [nM]	Ki (mu opioid receptor) [nM]	MOUSE PQW ED50 ([1]; p.o.) [mg/kg]	MOUSE PQW ED50 ([1]; s.c.) [mg/kg]
CN1CCCCC1C(c1ccccc1)N(C)C(=O)Cc1ccc(Cl)c(Cl)c1 (centres unmarked) [Example 2, benzeneacetamide, 3,4-dichloro-N-methyl-N-[1-(1-methyl-2-piperidinyl)phenyl-methyl], hydrochloride]	270	10	1.7						
CN(C(=O)Cc1ccc(Cl)c(Cl)c1)C(c1ccccc1)C1CCCCN1CC1CC1 (centres unmarked) [Example 3]		47		957	> 81	530			
CC(C1CCCCN1C)N(C)C(=O)Cc1ccc(Cl)c(Cl)c1 (centres unmarked) [Example 4, benzeneacetamide,3,4-dichloro-N-methyl-N-[1-(1-methyl-2-piperidinyl)ethyl]-, hydrochloride]		> 81		28500	67	1280			
COc1cccc(C(C2CCCCN2C)N(C)C(=O)Cc2ccc(Cl)c(Cl)c2)c1 (centres unmarked) [Example 5, benzeneacetamide,3,4-dichloro-N-[1-(3-methoxyphenyl)-1-(1-methyl-2-piperidinyl)methyl]-N-methyl-, hydrochloride]		38			1.3		3470		
CN1CCCCC1C(c1cccc(O)c1)N(C)C(=O)Cc1ccc(Cl)c(Cl)c1 (centres unmarked) [Example 6, benzeneacetamide,3,4-dichloro-N-[1-(3-hydroxyphenyl)-1-(1-methyl-2-piperidinyl)methyl]-N-methyl-, hydrobromide]		> 81			18		438		
COc1ccc(C(C2CCCCN2C)N(C)C(=O)Cc2ccc(Cl)c(Cl)c2)cc1 (centres unmarked) [Example 7, Benzeneacetamide, 3,4-dichloro-N-((1-(4-methoxyphenyl)-1-(1-methyl-2-piperidinylmethyl))-N-methyl-, hydrochloride]		> 81		5670	> 81	4590			
CN1CCCCC1C(c1ccc(O)cc1)N(C)C(=O)Cc1ccc(Cl)c(Cl)c1 (centres unmarked) [Example 8]		> 81		11400	> 81	2590			
CN1CCCCC1C(c1ccccc1)N(C)C(=O)Cc1ccc(Cl)c(Cl)c1 (centres unmarked) [Example 9]							322	16.	0.72
CN1CCCCC1C(c1ccccc1)N(C)C(=O)Cc1c(F)c(F)c(F)c(F)c1F (centres unmarked) [Example 10]		47			16		3200		
CCN(C(=O)Cc1ccc(Cl)c(Cl)c1)C(c1ccccc1)C1CCCCN1C (centres unmarked) [Example 11]		38					660		30.0
CCN(C(=O)Cc1ccc(Cl)c(Cl)c1)C(c1ccccc1)C1CCCCN1C (centres unmarked) [Example 12]							3320	24.	1.7
CN1CCCCC1C(c1ccccc1)N(C)C(=O)Cc1ccc(Cl)cc1Cl (centres unmarked) [Example 13]		24			8.1		625		
CN1CCCCC1C(c1ccccc1)N(C)C(=O)COc1ccc(Cl)c(Cl)c1 (centres unmarked) [Example 14]		1.2		58	0.11				
CN1CCCCC1C(Cc1ccccc1)N(C)C(=O)Cc1ccc(Cl)c(Cl)c1 (centres unmarked) [Example 47]		> 81		2560	> 81	3990			
CN1CCCC[C@H]1[C@H](c1ccccc1)N(C)C(=O)Cc1ccc(Cl)c(Cl)c1 [Example 106, (+)-[2S-(R*,R*)]-(3,4-dichlorophenyl)-N-methyl-N-[1-(1-methyl-2-piperidinyl)phenylmethyl]acetamide hydrochloride]		8.1			0.37		414		

Reference: patent US5254569A, “(Amidomethyl)nitrogen heterocyclic analgesics” (The Du Pont Merck Pharmaceutical Company, priority 1991, dated 1993)
